# Results published in patent publication US12559506B2, “Indazole based compounds and associated methods of use” (Arvinas Operations, Inc., priority 2021, dated 2026).
# Where two headings read alike, the source gives them in different places.
# How the values were obtained:
# wildtype LRRK2 = molecular target: T1, wildtype LRRK2 (Homo sapiens, UniProt Q5S007); assay: LRRK2 degradation assay, HiBit-tagged wildtype LRRK2 expressed from plasmid in HEK293 cells (Nano-Glo Dual-Luciferase); assay type: cell-based; conditions: 24 hours; for Dmax: read-out: **WT Dmax (%); for DC50: read-out: *WT DC50
# T1 construct: expressed in transfected cells; host or cells: HEK293 (ATCC CRL-1573), transient transfection, mammalian expression vector with ubiquitin promoter
# T1 sequence (Q5S007 whole entry): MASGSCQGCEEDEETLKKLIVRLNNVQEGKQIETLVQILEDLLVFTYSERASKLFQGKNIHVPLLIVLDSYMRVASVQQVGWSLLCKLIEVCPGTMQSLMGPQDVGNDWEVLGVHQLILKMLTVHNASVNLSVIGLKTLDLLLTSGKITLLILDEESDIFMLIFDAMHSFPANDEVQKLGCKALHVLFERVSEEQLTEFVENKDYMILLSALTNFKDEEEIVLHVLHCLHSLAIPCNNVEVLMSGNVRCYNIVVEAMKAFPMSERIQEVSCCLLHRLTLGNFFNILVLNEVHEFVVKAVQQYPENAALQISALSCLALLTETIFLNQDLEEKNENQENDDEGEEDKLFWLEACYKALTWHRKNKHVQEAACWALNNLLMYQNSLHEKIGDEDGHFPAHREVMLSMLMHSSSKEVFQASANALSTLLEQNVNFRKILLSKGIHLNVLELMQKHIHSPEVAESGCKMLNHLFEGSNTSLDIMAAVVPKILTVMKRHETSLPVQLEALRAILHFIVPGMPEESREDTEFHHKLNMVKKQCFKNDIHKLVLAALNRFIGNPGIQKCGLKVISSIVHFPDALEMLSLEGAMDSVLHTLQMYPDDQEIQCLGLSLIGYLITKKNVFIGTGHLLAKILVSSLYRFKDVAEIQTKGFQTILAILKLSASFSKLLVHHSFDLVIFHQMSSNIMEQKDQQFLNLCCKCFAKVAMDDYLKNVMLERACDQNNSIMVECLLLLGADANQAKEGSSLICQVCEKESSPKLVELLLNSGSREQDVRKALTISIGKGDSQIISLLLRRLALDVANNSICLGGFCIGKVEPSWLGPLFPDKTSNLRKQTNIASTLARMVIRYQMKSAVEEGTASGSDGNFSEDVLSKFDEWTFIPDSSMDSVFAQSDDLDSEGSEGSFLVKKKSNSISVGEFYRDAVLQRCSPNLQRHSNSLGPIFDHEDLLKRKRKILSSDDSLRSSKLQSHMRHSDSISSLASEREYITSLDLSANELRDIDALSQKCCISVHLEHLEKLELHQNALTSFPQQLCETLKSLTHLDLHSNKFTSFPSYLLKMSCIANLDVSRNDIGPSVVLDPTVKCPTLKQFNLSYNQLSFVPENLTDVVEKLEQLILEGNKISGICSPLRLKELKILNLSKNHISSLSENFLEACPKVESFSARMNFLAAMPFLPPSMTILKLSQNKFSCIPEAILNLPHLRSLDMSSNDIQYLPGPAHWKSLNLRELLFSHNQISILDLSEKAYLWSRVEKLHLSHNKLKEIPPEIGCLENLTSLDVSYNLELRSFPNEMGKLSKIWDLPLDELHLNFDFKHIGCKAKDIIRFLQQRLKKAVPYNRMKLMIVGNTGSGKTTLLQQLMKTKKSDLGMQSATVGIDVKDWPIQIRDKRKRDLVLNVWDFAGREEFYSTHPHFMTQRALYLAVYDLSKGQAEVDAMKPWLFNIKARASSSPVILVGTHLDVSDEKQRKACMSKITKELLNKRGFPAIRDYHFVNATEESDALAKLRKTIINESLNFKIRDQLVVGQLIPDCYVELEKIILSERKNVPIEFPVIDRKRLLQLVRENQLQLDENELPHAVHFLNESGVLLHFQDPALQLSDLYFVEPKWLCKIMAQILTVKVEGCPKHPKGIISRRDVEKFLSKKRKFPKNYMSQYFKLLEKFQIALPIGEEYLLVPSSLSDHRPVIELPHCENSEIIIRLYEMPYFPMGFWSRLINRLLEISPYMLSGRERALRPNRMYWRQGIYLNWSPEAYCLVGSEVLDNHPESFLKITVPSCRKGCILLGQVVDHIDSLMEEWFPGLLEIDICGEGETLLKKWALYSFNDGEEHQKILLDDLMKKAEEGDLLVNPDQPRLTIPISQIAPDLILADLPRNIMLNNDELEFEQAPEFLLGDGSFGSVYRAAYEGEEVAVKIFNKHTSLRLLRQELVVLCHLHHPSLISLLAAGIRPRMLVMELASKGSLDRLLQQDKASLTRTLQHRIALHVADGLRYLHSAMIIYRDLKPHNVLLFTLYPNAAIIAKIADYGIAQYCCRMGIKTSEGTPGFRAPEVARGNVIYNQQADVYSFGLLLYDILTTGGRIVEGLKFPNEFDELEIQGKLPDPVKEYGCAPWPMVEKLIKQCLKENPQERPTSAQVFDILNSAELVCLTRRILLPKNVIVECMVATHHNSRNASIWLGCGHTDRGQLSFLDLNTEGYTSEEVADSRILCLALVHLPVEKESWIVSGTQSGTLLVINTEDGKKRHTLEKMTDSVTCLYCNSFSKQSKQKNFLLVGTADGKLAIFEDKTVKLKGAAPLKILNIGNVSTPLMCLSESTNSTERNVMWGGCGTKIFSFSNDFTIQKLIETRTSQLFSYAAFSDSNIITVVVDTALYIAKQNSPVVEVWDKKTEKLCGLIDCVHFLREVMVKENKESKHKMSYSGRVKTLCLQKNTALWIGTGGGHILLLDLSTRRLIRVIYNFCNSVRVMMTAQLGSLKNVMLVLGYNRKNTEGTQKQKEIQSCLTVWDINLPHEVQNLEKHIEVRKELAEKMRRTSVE
# In short: (§1)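 HEK293 cells co-transfected with C-terminal HiBiT-tagged LRRK2 (WT or G2019S, ubiquitin promoter) and firefly luciferase, then dosed 24 h at 37 °C. HiBiT/firefly ratio normalized to DMSO median; DC50 and Dmax from per-plate curve fits, six replicates over two days.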
# G2019S LRRK2 = molecular target: T2, G2019S LRRK2 (Homo sapiens, UniProt Q5S007, G2019S); assay: LRRK2 degradation assay, HiBit-tagged G2019S LRRK2 expressed from plasmid in HEK293 cells (Nano-Glo Dual-Luciferase); assay type: cell-based; conditions: 24 hours
# T2 construct: expressed in transfected cells; host or cells: HEK293 (ATCC CRL-1573), transient transfection, mammalian expression vector with ubiquitin promoter
# T2 sequence (Q5S007 whole entry G2019S): as the sequence (Q5S007 whole entry) above, with G2019S counted along it
# In short: as §1
# [1] = HiBit-tagged wildtype LRRK2 in HEK293 cells
# [2] = HiBit-tagged G2019S LRRK2 in HEK293 cells
# [3] = HiBit-tagged wildtype LRRK2, HEK293 cells
# [4] = HiBit-tagged G2019S LRRK2, HEK293 cells
SMILES,Dmax (wildtype LRRK2; [1]) [%],DC50 (wildtype LRRK2; [1]) [nM],DC50 (G2019S LRRK2; [2]) [nM],Dmax (G2019S LRRK2; [2]) [%],Dmax (wildtype LRRK2; [3]) [%],DC50 (wildtype LRRK2; [3]) [nM],DC50 (G2019S LRRK2; [4]) [nM],Dmax (G2019S LRRK2; [4]) [%]
"CC1(Oc2ccc3n[nH]c(-c4cc(N5CCN(CC6(F)CCN(CC7CN(c8ccc9c(c8)C(=O)N(C8CCC(=O)NC8=O)C9=O)C7)CC6)CC5)ncn4)c3c2)CC1 (stereo not shown) [Compound 135, 2-(2,6-dioxo-3-piperidyl)-5-[3-[[4-fluoro-4-[[4-[6-[5-(1-methylcyclopropoxy)-2H-indazol-3-yl]pyrimidin-4-yl]piperazin-1-yl]methyl]-1-piperidyl]methyl]azetidin-1-yl]isoindoline-1,3-dione]",< 50,< 10,< 10,50 to 70,–,–,–,–
"CC1(Oc2ccc3n[nH]c(-c4cc(N5CCN(CC6(F)CCN(C(=O)C7CN(c8ccc9c(c8)C(=O)N(C8CCC(=O)NC8=O)C9=O)C7)CC6)CC5)ncn4)c3c2)CC1 (stereo not shown) [Compound 136, 2-(2,6-dioxo-3-piperidyl)-5-[3-[4-fluoro-4-[[4-[6-[5-(1-methylcyclopropoxy)-2H-indazol-3-yl]pyrimidin-4-yl]piperazin-1-yl]methyl]piperidine-1-carbonyl]azetidin-1-yl]isoindoline-1,3-dione]",50 to 70,< 10,< 10,50 to 70,–,–,–,–
"C[C@H]1CN(c2cc(-c3n[nH]c4ccc(OC5(C)CC5)cc34)ncn2)CCN1CCC1CCN(CC2CCN(c3cccc4c3C(=O)N(C3CCC(=O)NC3=O)C4=O)CC2)CC1 (stereo partly drawn) [Compound 138, 2-(2,6-dioxo-3-piperidyl)-4-[4-[[4-[2-[(2S)-2-methyl-4-[6-[5-(1-methylcyclopropoxy)-2H-indazol-3-yl]pyrimidin-4-yl]piperazin-1-yl]ethyl]-1-piperidyl]methyl]-1-piperidyl]isoindoline-1,3-dione]",≥ 70,10 to 50,< 10,≥ 70,–,–,–,–
"C[C@H]1CN(c2cc(-c3n[nH]c4ccc(OC5(C)CC5)cc34)ncn2)CCN1CC1CCN(CCCOc2cccc3c2C(=O)N(C2CCC(=O)NC2=O)C3=O)CC1 (stereo partly drawn) [Compound 139, 2-(2,6-dioxo-3-piperidyl)-4-[3-[4-[[(2S)-2-methyl-4-[6-[5-(1-methylcyclopropoxy)-2H-indazol-3-yl]pyrimidin-4-yl]piperazin-1-yl]methyl]-1-piperidyl]propoxy]isoindoline-1,3-dione]",< 50,10 to 50,10 to 50,< 50,–,–,–,–
"C[C@H]1CN(c2cc(-c3n[nH]c4ccc(OC5(C)CC5)cc34)ncn2)CCN1CC1CCN(CCCNc2cccc3c2C(=O)N(C2CCC(=O)NC2=O)C3=O)CC1 (stereo partly drawn) [Compound 140, 2-(2,6-dioxo-3-piperidyl)-4-[3-[4-[[(2S)-2-methyl-4-[6-[5-(1-methylcyclopropoxy)-2H-indazol-3-yl]pyrimidin-4-yl]piperazin-1-yl]methyl]-1-piperidyl]propylamino]isoindoline-1,3-dione]",< 50,< 10,< 10,< 50,–,–,–,–
"C[C@H]1CN(c2cc(-c3n[nH]c4ccc(OC5(C)CC5)cc34)ncn2)CCN1CC1CCN(CCCNc2cccc3c2CN(C2CCC(=O)NC2=O)C3=O)CC1 (stereo partly drawn) [Compound 142, 3-[4-[3-[4-[[(2S)-2-methyl-4-[6-[5-(1-methylcyclopropoxy)-1H-indazol-3-yl]pyrimidin-4-yl]piperazin-1-yl]methyl]-1-piperidyl]propylamino]-1-oxo-isoindolin-2-yl]piperidine-2,6-dione]",< 50,50 to 100,10 to 50,< 50,–,–,–,–
"CC1(Oc2ccc3[nH]nc(-c4cc(N5CCN(CC6CCN(CCCCNc7cccc8c7CN(C7CCC(=O)NC7=O)C8=O)CC6)CC5)ncn4)c3c2)CC1 (stereo not shown) [Compound 143, 3-[4-[4-[4-[[4-[6-[5-(1-methylcyclopropoxy)-1H-indazol-3-yl]pyrimidin-4-yl]piperazin-1-yl]methyl]-1-piperidyl]butylamino]-1-oxo-isoindolin-2-yl]piperidine-2,6-dione]",< 50,10 to 50,10 to 50,50 to 70,–,–,–,–
"CC1(Oc2ccc3[nH]nc(-c4ccnc(N5CCOC6(CN(CC7CCN(CC8CCN(c9cccc%10c9C(=O)N(C9CCC(=O)NC9=O)C%10=O)CC8)CC7)C6)C5)c4)c3c2)CC1 (stereo not shown) [Compound 144, 2-(2,6-dioxo-3-piperidyl)-4-[4-[[4-[[8-[4-[5-(1-methylcyclopropoxy)-1H-indazol-3-yl]-2-pyridyl]-5-oxa-2,8-diazaspiro[3.5]nonan-2-yl]methyl]-1-piperidyl]methyl]-1-piperidyl]isoindoline-1,3-dione]",50 to 70,10 to 50,10 to 50,50 to 70,–,–,–,–
"C[C@H]1CN(c2cc(-c3[nH]nc4ccc(OC5(C)CC5)cc34)ncn2)CCN1CC1CCN(CC2CCN(c3cccc4c3CN(C3CCC(=O)NC3=O)C4=O)CC2)CC1 (stereo partly drawn) [Compound 145, 3-[4-[4-[[4-[[(2S)-2-methyl-4-[6-[5-(1-methylcyclopropoxy)-2H-indazol-3-yl]pyrimidin-4-yl]piperazin-1-yl]methyl]-1-piperidyl]methyl]-1-piperidyl]-1-oxo-isoindolin-2-yl]piperidine-2,6-dione]",< 50,< 10,< 10,50 to 70,–,–,–,–
"CC1(Oc2ccc3n[nH]c(-c4cc(N5CCC(CN6CCN(CC7CCN(c8cccc9c8CN(C8CCC(=O)NC8=O)C9=O)CC7)CC6)CC5)ncn4)c3c2)CC1 (stereo not shown) [Compound 147, 3-[4-[4-[[4-[[1-[6-[5-(1-methylcyclopropoxy)-2H-indazol-3-yl]pyrimidin-4-yl]-4-piperidyl]methyl]piperazin-1-yl]methyl]-1-piperidyl]-1-oxo-isoindolin-2-yl]piperidine-2,6-dione]",≥ 70,< 10,< 10,≥ 70,–,–,–,–

# Now from value to compound:
Dmax (wildtype LRRK2; [1]) [%],DC50 (wildtype LRRK2; [1]) [nM],DC50 (G2019S LRRK2; [2]) [nM],Dmax (G2019S LRRK2; [2]) [%],Dmax (wildtype LRRK2; [3]) [%],DC50 (wildtype LRRK2; [3]) [nM],DC50 (G2019S LRRK2; [4]) [nM],Dmax (G2019S LRRK2; [4]) [%],SMILES
< 50,10 to 50,10 to 50,50 to 70,–,–,–,–,"CC1(Oc2ccc3[nH]nc(-c4cc(N5CCN(CC(F)(F)C6CCN(CC7CCN(c8cccc9c8C(=O)N(C8CCC(=O)NC8=O)C9=O)CC7)CC6)CC5)ncn4)c3c2)CC1 (stereo not shown) [Compound 148, 4-[4-[[4-[1,1-difluoro-2-[4-[6-[5-(1-methylcyclopropoxy)-1H-indazol-3-yl]pyrimidin-4-yl]piperazin-1-yl]ethyl]-1-piperidyl]methyl]-1-piperidyl]-2-(2,6-dioxo-3-piperidyl)isoindoline-1,3-dione]"
50 to 70,10 to 50,10 to 50,50 to 70,–,–,–,–,"CC1(Oc2ccc3[nH]nc(-c4cc(N5CCO[C@@H](CN6CCC(OC7CCN(c8ccc9c(c8)C(=O)N(C8CCC(=O)NC8=O)C9=O)CC7)CC6)C5)ncn4)c3c2)CC1 (stereo partly drawn) [Compound 149, 2-(2,6-dioxo-3-piperidyl)-5-[4-[[1-[[(2S)-4-[6-[5-(1-methylcyclopropoxy)-1H-indazol-3-yl]pyrimidin-4-yl]morpholin-2-yl]methyl]-4-piperidyl]oxy]-1-piperidyl]isoindoline-1,3-dione]"
50 to 70,< 10,< 10,50 to 70,–,–,–,–,"CC1(Oc2ccc3[nH]nc(-c4cc(N5CCO[C@H](CN6CCC(OC7CCN(c8ccc9c(c8)C(=O)N(C8CCC(=O)NC8=O)C9=O)CC7)CC6)C5)ncn4)c3c2)CC1 (stereo partly drawn) [Compound 150, 2-(2,6-dioxopiperidin-3-yl)-5-{4-[(1-{[(2R)-4-{6-[5-(1-methylcyclopropoxy)-1H-indazol-3-yl]pyrimidin-4-yl}morpholin-2-yl]methyl}piperidin-4-yl)oxy]piperidin-1-yl}-2,3-dihydro-1H-isoindole-1,3-dione]"
50 to 70,< 10,< 10,50 to 70,–,–,–,–,"CC1(Oc2ccc3[nH]nc(-c4ccnc(N5CCOC6(CN(CC7CCN(CC8CCN(c9ccc%10c(c9)C(=O)N(C9CCC(=O)NC9=O)C%10=O)CC8)CC7)C6)C5)c4)c3c2)CC1 (stereo not shown) [Compound 151, 2-(2,6-dioxo-3-piperidyl)-5-[4-[[4-[[8-[4-[5-(1-methylcyclopropoxy)-1H-indazol-3-yl]-2-pyridyl]-5-oxa-2,8-diazaspiro[3.5]nonan-2-yl]methyl]-1-piperidyl]methyl]-1-piperidyl]isoindoline-1,3-dione]"
–,–,–,–,< 50,< 10,< 10,< 50,"CC1(Oc2ccc3[nH]nc(-c4cc(N5CCO[C@H](CN6CCN(CC7CCN(c8ccc9c(c8)C(=O)N(C8CCC(=O)NC8=O)C9=O)CC7)CC6)C5)ncn4)c3c2)CC1 (stereo partly drawn) [Compound 152, 2-(2,6-dioxo-3-piperidyl)-5-[4-[[4-[[(2R)-4-[6-[5-(1-methylcyclopropoxy)-1H-indazol-3-yl]pyrimidin-4-yl]morpholin-2-yl]methyl]piperazin-1-yl]methyl]-1-piperidyl]isoindoline-1,3-dione]"
–,–,–,–,< 50,< 10,< 10,< 50,"CC1(Oc2ccc3[nH]nc(-c4cc(N5CCO[C@@H](CN6CCN(CC7CCN(c8ccc9c(c8)C(=O)N(C8CCC(=O)NC8=O)C9=O)CC7)CC6)C5)ncn4)c3c2)CC1 (stereo partly drawn) [Compound 153, 2-(2,6-dioxopiperidin-3-yl)-5-{4-[(4-{[(2S)-4-{6-[5-(1-methylcyclopropoxy)-1H-indazol-3-yl]pyrimidin-4-yl}morpholin-2-yl]methyl}piperazin-1-yl)methyl]piperidin-1-yl}-2,3-dihydro-1H-isoindole-1,3-dione]"
